# Experimental data from PMC3769651 (Scientific Reports, 2013).
# Molecular target: vchNADK (Vibrio cholerae, UniProt Q9KTP8, K2E/N76T)
structure (smiles),measurement,value
NC(=O)c1ccc[n+]([C@@H]2O[C@H](COP(=O)(O)OP(=O)(O)OC[C@H]3O[C@@H](n4cnc5c(N)ncnc54)[C@H](OP(=O)(O)O)[C@@H]3O)[C@@H](O)[C@H]2O)c1 [NADP^+],% residual activity at 0.20 mM,39%
